According to patent US11760754B2, “Heterocyclic mitochondrial activity inhibitors and uses thereof” (UNIVERSITÉ DE MONTRÉAL, priority 2017, dated 2023):

How the values were obtained:
[1] = test system: MLL-AF9 cells; test: MLL-AF9 leukemia cell growth inhibition, dose-response viability assay (CellTiterGlo); format: cell-based, murine; conditions: Mus musculus, MLL-AF9, 120 h, read-out: MLL-AF9 EC50
In short: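 Murine MLL-AF9 leukemia cells (female, MSCV MLL-AF9 IRES Puro transduced) were treated with serial compound dilutions from 10 μM to 0.5 nM in duplicates or quadruplicates. Viability read by CellTiterGlo dose-response.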

[2] = test system: OCI-AML3 cells; test: OCI-AML3 cell growth inhibition, dose-response viability assay (CellTiterGlo); format: cell-based; conditions: Homo sapiens, OCI-AML-3, 144 h, read-out: AML-3 EC50
In short: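 OCI-AML3 cells seeded, then exposed to compound in serial dilutions from 10 μM to 0.5 nM, in duplicate or quadruplicate. Viability read by CellTiter-Glo.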

EC50 [1]	EC50 [2]	Compound
500 to 1000 nM	1000 to 10000 nM	Fc1cc(C(F)(F)F)ccc1/C=C/c1nc(COc2ccc(CCCCn3cccn3)cc2)co1 [Compound 91, (E)-4-((4-(4-(1H-pyrazol-1-yl)butyl)phenoxy)methyl)-2-(2-fluoro-4-(trifluoromethyl)styryl) oxazole]
100 to 500 nM	500 to 1000 nM	Cc1cn(CCCCc2ccc(OCc3coc(/C=C/c4ccc(C(F)(F)F)cc4F)n3)cc2)nn1 [Compound 92, (E)-2-(2-fluoro-4-(trifluoromethyl)styryl)-4-((4-(4-(4-methyl-1H-1,2,3-triazol-1-yl)butyl)phenoxy)methyl) oxazole]
500 to 1000 nM	1000 to 10000 nM	Cc1ncn(CCCCc2ccc(OCc3coc(/C=C/c4ccc(C(F)(F)F)cc4F)n3)cc2)n1 [Compound 93, (E)-2-(2-fluoro-4-(trifluoromethyl)styryl)-4-((4-(4-(3-methyl-1H-1,2,4-triazol-1-yl)butyl)phenoxy)methyl)oxazole]
1000 to 10000 nM	1000 to 10000 nM	Cc1nnn(CCCCc2ccc(OCc3coc(/C=C/c4ccc(C(F)(F)F)cc4F)n3)cc2)n1 [Compound 94, (E)-2-(2-fluoro-4-(trifluoromethyl)styryl)-4-((4-(4-(5-methyl-2H-tetrazol-2-yl)butyl)phenoxy)methyl)oxazole]
100 to 500 nM	1000 to 10000 nM	OCCc1cn(CCCCc2ccc(OCc3coc(/C=C/c4ccc(C(F)(F)F)cc4F)n3)cc2)nn1 [Compound 95, (E)-2-(1-(4-(4-((2-(2-fluoro-4-(trifluoromethyl)styryl)oxazol-4-yl)methoxy)phenyl)butyl)-1H-1,2,3-triazol-4-yl)ethanol]
100 to 500 nM	500 to 1000 nM	COCCNC(=O)OCCc1cn(CCCCc2ccc(OCc3coc(/C=C/c4ccc(C(F)(F)F)cc4F)n3)cc2)nn1 [Compound 96, (E)-2-(1-(4-(4-((2-(2-fluoro-4-(trifluoromethyl)styryl)oxazol-4-yl)methoxy)phenyl)butyl)-1H-1,2,3-triazol-4-yl)ethyl (2-methoxyethyl)carbamate]
100 to 500 nM	100 to 500 nM	O=C(NC1CCCC1)OCCc1cn(CCCCc2ccc(OCc3coc(/C=C/c4ccc(C(F)(F)F)cc4F)n3)cc2)nn1 [Compound 97, (E)-2-(1-(4-(4-((2-(2-fluoro-4-(trifluoromethyl)styryl)oxazol-4-yl)methoxy)phenyl)butyl)-1H-1,2,3-triazol-4-yl)ethyl cyclopentylcarbamate]
50 to 100 nM	100 to 500 nM	CC(C)NC(=O)OCCc1cn(CCCCc2ccc(OCc3coc(/C=C/c4ccc(C(F)(F)F)cc4F)n3)cc2)nn1 [Compound 98, (E)-2-(1-(4-(4-((2-(2-fluoro-4-(trifluoromethyl)styryl)oxazol-4-yl)methoxy)phenyl)butyl)-1H-1,2,3-triazol-4-yl)ethyl isopropylcarbamate]
100 to 500 nM	100 to 500 nM	O=[N+]([O-])c1ccc(/C=C/c2nc(COc3ccc(CCCCn4ccnc4)cc3)co2)c(F)c1 [Compound 99, (E)-4-((4-(4-(1H-imidazol-1-yl)butyl)phenoxy)methyl)-2-(2-fluoro-4-nitrostyryl)oxazole]
500 to 1000 nM	500 to 1000 nM	Fc1cc(C(F)(F)F)ccc1/C=C/c1nc(COc2ccc(CCCCn3ccnc3)cc2)co1 [Compound 100, (E)-4-((4-(4-(1H-imidazol-1-yl)butyl)phenoxy)methyl)-2-(2-fluoro-4-(trifluoromethyl)styryl)oxazole]
1000 to 10000 nM	1000 to 10000 nM	O=[N+]([O-])c1ccc(/C=C/c2nc(COc3ccc(CCCCn4ccnn4)cc3)co2)c(Oc2ccc(CCCCn3ccnn3)cc2)c1 [Compound 101, (E)-2-(2-(4-(4-(1H-1,2,3-triazol-1-yl)butyl)phenoxy)-4-nitrostyryl)-4-((4-(4-(1H-1,2,3-triazol-1-yl)butyl)phenoxy)methyl)oxazole]
100 to 500 nM	100 to 500 nM	Fc1cc(C(F)(F)F)ccc1/C=C/c1nc(COc2ccc(CCCCc3cccnc3)cc2)co1 [Compound 102, (E)-2-(2-fluoro-4-(trifluoromethyl)styryl)-4-((4-(4-(pyridin-3-yl)butyl)phenoxy)methyl)oxazole]
100 to 500 nM	100 to 500 nM	O=[N+]([O-])c1ccc(/C=C/c2nc(COc3ccc(CCCCc4cccnc4)cc3)co2)c(F)c1 [Compound 103, (E)-2-(2-fluoro-4-nitrostyryl)-4-((4-(4-(pyridin-3-yl)butyl)phenoxy)methyl)oxazole]
1000 to 10000 nM	1000 to 10000 nM	Fc1cc(C(F)(F)F)ccc1/C=C/c1nc(COc2ccc(CCCCc3ccncc3)cc2)co1 [Compound 104, (E)-2-(2-fluoro-4-(trifluoromethyl)styryl)-4-((4-(4-(pyridin-4-yl)butyl)phenoxy)methyl)oxazole]
500 to 1000 nM	100 to 500 nM	Fc1cc(C(F)(F)F)ccc1/C=C/c1nc(COc2ccc(CCCn3ccnn3)cc2)co1 [Compound 105, (E)-4-((4-(3-(1H-1,2,3-triazol-1-yl)propyl)phenoxy)methyl)-2-(2-fluoro-4-(trifluoromethyl)styryl)oxazole]
1000 to 10000 nM	1000 to 10000 nM	FC(F)(F)c1ccc(/C=C/c2nc(COc3ccc(CCCn4ccnn4)cc3)co2)c(-n2nccn2)c1 [Compound 106, (E)-4-((4-(3-(1H-1,2,3-triazol-1-yl)propyl)phenoxy)methyl)-2-(2-(2H-1,2,3-triazol-2-yl)-4-(trifluoromethyl)styryl)oxazole]

EC50 [1]	EC50 [2]	Compound
1000 to 10000 nM	1000 to 10000 nM	Fc1cc(C(F)(F)F)ccc1/C=C/c1nc(COc2ccc(CCCCc3nccs3)cc2)co1 [Compound 107, (E)-2-(2-fluoro-4-(trifluoromethyl)styryl)-4-((4-(4-(thiazol-2-yl)butyl)phenoxy)methyl) oxazole]
1000 to 10000 nM	1000 to 10000 nM	Fc1cc(C(F)(F)F)ccc1/C=C/c1nc(COc2ccc(CCCCc3cncnc3)cc2)co1 [Compound 108, (E)-2-(2-fluoro-4-(trifluoromethyl)styryl)-4-((4-(4-(pyrimidin-5-yl)butyl)phenoxy)methyl)oxazole]
100 to 500 nM	500 to 1000 nM	Fc1cc(C(F)(F)F)ccc1/C=C/c1nc(COc2ccc(OCCCn3ccnn3)cc2)co1 [Compound 109, (E)-4-((4-(3-(1H-1,2,3-triazol-1-yl)propoxy)phenoxy)methyl)-2-(2-fluoro-4-(trifluoromethyl)styryl)oxazole]
1000 to 10000 nM	1000 to 10000 nM	Fc1cc(C(F)(F)F)ccc1/C=C/c1nc(COc2ccc(CCCCn3ncnn3)cc2)co1 [Compound 110, (E)-4-((4-(4-(2H-tetrazol-2-yl)butyl)phenoxy)methyl)-2-(2-fluoro-4-(trifluoromethyl)styryl)oxazole]
500 to 1000 nM	1000 to 10000 nM	Fc1cc(C(F)(F)F)ccc1/C=C/c1nc(/C=C/c2ccc(CCCCn3ccnn3)cc2)co1 [Compound 111, 4-((E)-4-(4-(1H-1,2,3-triazol-1-yl)butyl)styryl)-2-((E)-2-fluoro-4-(trifluoromethyl)styryl) oxazole]
50 to 100 nM	100 to 500 nM	Fc1ccc2oc(-c3nc(COc4ccc(CCCCn5ccnn5)cc4)co3)cc2c1 [Compound 112, 4-((4-(4-(1H-1,2,3-triazol-1-yl)butyl)phenoxy)methyl)-2-(5-fluorobenzofuran-2-yl) oxazole]
100 to 500 nM	500 to 1000 nM	Fc1ccc2sc(-c3nc(COc4ccc(CCCCn5ccnn5)cc4)co3)cc2c1 [Compound 113, 4-((4-(4-(1H-1,2,3-triazol-1-yl)butyl)phenoxy)methyl)-2-(5-fluorobenzo[b]thiophen-2-yl)oxazole]
1000 to 10000 nM	1000 to 10000 nM	CCOC(=O)c1cn(CCCCc2ccc(OCc3coc(/C=C/c4ccc(C(F)(F)F)cc4)n3)cc2)nn1 [Compound 114, ethyl (E)-1-(4-(4-((2-(4-(trifluoromethyl)styryl)oxazol-4-yl)methoxy)phenyl)butyl)-1H-1,2,3-triazole-4-carboxylate]
100 to 500 nM	500 to 1000 nM	Fc1cc(C(F)(F)F)ccc1/C=C/c1nc(COc2ccc(COCCn3ccnn3)cc2)co1 [Compound 115, (E)-4-((4-((2-(1H-1,2,3-triazol-1-yl)ethoxy)methyl)phenoxy)methyl)-2-(2-fluoro-4-(trifluoromethyl)styryl)oxazole]
50 to 100 nM	50 to 100 nM	Fc1cc(Cl)ccc1/C=C/c1nc(COc2ccc(CCCCn3ccnn3)cc2)co1 [Compound 116, (E)-4-((4-(4-(1H-1,2,3-triazol-1-yl)butyl)phenoxy)methyl)-2-(4-chloro-2-fluorostyryl)oxazole]
100 to 500 nM	100 to 500 nM	Fc1ccc(/C=C/c2nc(COc3ccc(CCCCn4ccnn4)cc3)co2)c(Cl)c1 [Compound 117, (E)-4-((4-(4-(1H-1,2,3-triazol-1-yl)butyl)phenoxy)methyl)-2-(2-chloro-4-fluorostyryl)oxazole]
100 to 500 nM	100 to 500 nM	Clc1ccccc1/C=C/c1nc(COc2ccc(CCCCn3ccnn3)cc2)co1 [Compound 118, (E)-4-((4-(4-(1H-1,2,3-triazol-1-yl)butyl)phenoxy)methyl)-2-(2-chlorostyryl)oxazole]
100 to 500 nM	100 to 500 nM	Clc1ccc(/C=C/c2nc(COc3ccc(CCCCn4ccnn4)cc3)co2)c(Cl)c1 [Compound 119, (E)-4-((4-(4-(1H-1,2,3-triazol-1-yl)butyl)phenoxy)methyl)-2-(2,4-dichlorostyryl)oxazole]
< 50 nM	100 to 500 nM	Fc1cc(/C=C/c2nc(COc3ccc(CCCCn4ccnn4)cc3)co2)cc(F)c1F [Compound 120, (E)-4-((4-(4-(1H-1,2,3-triazol-1-yl)butyl)phenoxy)methyl)-2-(3,4,5-trifluorostyryl)oxazole]
50 to 100 nM	50 to 100 nM	Fc1ccc(/C=C/c2nc(COc3ccc(CCCCn4ccnn4)cc3)co2)cc1F [Compound 121, (E)-4-((4-(4-(1H-1,2,3-triazol-1-yl)butyl)phenoxy)methyl)-2-(3,4-difluorostyryl)oxazole]
